Test results reported in paper PMC1190152, “Archazolid and apicularen: Novel specific V-ATPase inhibitors” (BMC Biochemistry, 2005).

Experiments:
F-ATPase [1] = target: T1, F-ATPase (Bos taurus, UniProt P00829); assay: Inhibition of F-ATPase activity in submitochondrial particles from beef heart; type: biochemical
T1 construct: Submitochondrial particles were obtained by ultrasonic treatment of the mitochondria; from tissue; host or cells: beef heart mitochondria, submitochondrial particles
Protocol: (§1) The V-ATPase holoenzyme was purified as published elsewhere. Preparation of highly purified membranes containing Na^+/K^+-ATPase from pig kidney followed the protocol of Jørgensen with the three main steps of differential centrifugation, incubation with SDS in the presence of ATP and sucrose density gradient centrifugation in a fixed angle rotor, and led to a specific enzyme activity which was in the same range as that reported by the authors. The resulting sample was stored frozen at -20°C. To prepare crude membrane extracts, the hearts of three mice were washed three times with an ice-cold buffer of pH 8.1 consisting of 0.25 M sucrose, 5 mM Tris-HCl, 5 mM EDTA, and 10 mM Pefabloc SC (Biomol), homogenized in 5 ml of this buffer and centrifuged at 4°C for 25 min at 233,000 × gmax in a fixed angle rotor. The resulting pellet was resuspended in 5 ml of a buffer of pH 7.5, consisting of 5 mM Tris-MOPS (3-morpholinopropanesulfonic acid), 10 mM NaCl, 10 mM Pefabloc SC, 9.6 mM 2-mercaptoethanol, 0.53 mM EGTA and 0.1 % Triton X-100. After an aliquot for protein determination had been taken, 10% bovine serum albumin (final concentration) was added to the suspension which was then stored on ice until the activity assays were run. Beef heart mitochondria were isolated by differential centrifugation, following the protocol of Smith by using a blender to homogenize the heart mince. The initial homogenization buffer consisted of 250 mM saccharose, 10 mM KH2PO4, 10 mM Tris, 2 mM EGTA, 2 mM MgCl2, pH 7.4, and further isolation procedures were carried out in the same medium without EGTA [24]. Submitochondrial particles were obtained by ultrasonic treatment of the mitochondria.
(§2) Standard V-ATPase assays with a final volume of 160 μl and a pH of 8.1 consisted of 3–4 μg of protein, 50 mM Tris-MOPS, 3 mM 2-mercaptoethanol, 1 mM MgCl2, 20 mM KCl, 0.003% C12E10, 20 mM NaCl, and 3 mM Tris-HCl. After 5 min of pre-incubation at 30°C with or without inhibitors, 1 mM Tris-ATP was added and after incubation for 2 min the reaction was stopped by placing the tube in liquid nitrogen. Assays using Na^+/K^+-ATPase were performed in 160 μl at pH 7.5 and contained 0.5 μg of protein, 50 mM Tris-MOPS, 5 mM imidazole, 0.2 mM EDTA, 4 mM MgCl2, 20 mM KCl and 100 mM NaCl. After 5 min of pre-incubation at 37°C with or without inhibitors, 3 mM Tris-ATP was added and after 1 min of incubation the reaction was stopped by placing the tube in liquid nitrogen. […] After 5 min of pre-incubation at 30°C with or without inhibitors, 1 mM Tris-ATP was added and after an incubation time of 10 min the reaction was stopped by placing the tubes in liquid nitrogen. ATPase assays with submitochondrial particles from beef heart were performed in a final volume of 1 ml and a pH of 8.0. The samples contained 9–12 μg protein, 50 mM Tris, 50 mM KCl and 2.5 mM MgCl2. After 5 min of preincubation with or without inhibitors, 5 mM ATP was added, and after an additional incubation time of 15 min the reaction was stopped by the addition of 0.4 ml of 20 % TCA.
(§3) Inorganic phosphate produced in the assays of V-ATPase, Na^+/K^+-ATPase and mouse heart F-ATPase was measured according the protocol of Wieczorek et al., while the determination of inorganic phosphate produced in the assays of beef heart F-ATPase followed the method of Fiske and Subarrow using ascorbic acid as reducing agent.

F-ATPase [2] = target: T2, F-ATPase (Mus musculus, UniProt P56480); assay: Inhibition of F-ATPase activity in crude membranes from mouse heart; type: biochemical
T2 construct: we prepared mitochondria rich crude membranes from mouse heart; from tissue; host or cells: mouse heart, crude membrane extract
Protocol: as §1, §2, §3

Vo subunit c = target: T3, Vo subunit c (Manduca sexta, UniProt P31403); parameters: method as in PMID 12186879; settings: previous study; ref [10]; cited from earlier work
T3 construct: from tissue; host or cells: midgut of Manduca sexta larvae (purified V-ATPase)

[3] = target: T4, V-ATPase holoenzyme from the midgut of the tobacco hornworm (Manduca sexta, UniProt P31403); parameters: method as in PMID 12186879; settings: ref [10], cited from earlier work
T4 construct: purified V-ATPase holoenzyme from the midgut of the tobacco hornworm; from tissue; host or cells: midgut of fifth instar Manduca sexta larvae

Na+/K+-ATPase = target: T5, Na+/K+-ATPase (Sus scrofa, UniProt P05024); assay: Inhibition of Na+/K+-ATPase from pig kidney; type: biochemical
T5 construct: highly purified, Na^+/K^+-ATPase containing plasma membranes from pig kidney; from tissue; host or cells: pig kidney, purified plasma membranes
Protocol: as §1, §2, §3

[4] = beef heart submitochondrial particles, specific F-ATPase inhibitors
[5] = mouse heart crude membranes, specific F-ATPase inhibitors
[6] = beef heart submitochondrial particles, inhibitor 1 μM
[7] = mouse heart crude membranes, inhibitor 1 μM
[8] = read-out: ATPase activity reduced to (remaining activity)
[9] = experiment 1, inhibitor 0.1 mM, control 19.0
[10] = experiment 1, inhibitor 1 mM, control 19.0
[11] = experiment 2, inhibitor 1 mM, control 15.9

T4 sequence (P31403 whole entry): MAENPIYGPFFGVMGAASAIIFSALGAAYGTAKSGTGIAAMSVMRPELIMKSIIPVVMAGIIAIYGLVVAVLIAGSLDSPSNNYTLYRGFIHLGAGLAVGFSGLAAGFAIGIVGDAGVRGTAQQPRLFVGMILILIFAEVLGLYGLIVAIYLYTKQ
T3 sequence (P31403 whole entry): as above

## [N-]=[N+]=[N-] [azide, reference compound]
F-ATPase [1]; [4]
  ATPase activity reduced to (remaining activity): around 25%
F-ATPase [2]; [5]
  ATPase activity reduced to (remaining activity): around 25%

## CO/C1=C\C(C)=C\[C@@H](C)[C@@H](O)[C@@H](C)C/C(C)=C/C=C/[C@H](OC)[C@@H]([C@@H](C)[C@@H](O)[C@H](C)[C@@]2(O)C[C@@H](OC(=O)/C=C/C(=O)NC3=C(O)CCC3=O)[C@H](C)[C@@H](C(C)C)O2)OC1=O [bafilomycin B1]
Vo subunit c
  labelling of / binding to subunit c: prevented
[3]
  IC50 per mg of protein, purified V-ATPase: ca. 0.5 nmol per mg of protein
[3]; read-out: half-maximal inhibition concentration of purified V-ATPase
  IC50: ~10 nM

## CO/C1=C\C(C)=C\[C@@H](C)[C@@H](O)[C@@H](C)C/C(C)=C/C=C/[C@H](OC)[C@@H]([C@@H](C)[C@@H](O)[C@H](C)[C@@]2(O)C[C@@H](O)[C@H](C)[C@@H](C(C)C)O2)OC1=O [bafilomycin, reference compound]
F-ATPase [1]; [6]
  ATPase activity reduced to (remaining activity): approximately 80%
F-ATPase [2]; [7]
  ATPase activity reduced to (remaining activity): approximately 80%

## C/C=C/[C@H]1O[C@@](O)([C@@H](C)[C@H](O)[C@H](C)[C@H]2OC(=O)/C(OC)=C/C(C)=C/[C@@H](C)[C@@H](O)[C@@H](CC)[C@@H](O)[C@H](C)C/C(C)=C/C=C/[C@@H]2OC)C[C@@H](O)[C@@H]1C [concanamycin, reference compound]
F-ATPase [1]; [8]
  remaining activity at 1 µM: ~80%
F-ATPase [2]; [8]
  remaining activity at 1 µM: ~80%

## CC[C@H]1/C=C/C=C/C[C@@H](C)[C@H](O)[C@@](C)(O)C(=O)[C@@H](C)[C@H](O)[C@@H](C)C(=O)[C@@H](C)[C@H](O)[C@@H](C)/C=C/C(=O)O[C@@H]2[C@H](C)[C@H](CC1)O[C@]1(CC[C@H](C)[C@H](C[C@@H](C)O)O1)[C@H]2C [oligomycin, reference compound]
F-ATPase [1]; [4]
  ATPase activity reduced to (remaining activity): around 25%
F-ATPase [2]; [5]
  ATPase activity reduced to (remaining activity): around 25%

## C[C@@H]1O[C@@H](O[C@H]2C[C@@H](O)[C@]3(CO)[C@H]4[C@H](O)C[C@]5(C)[C@@H](C6=CC(=O)OC6)CC[C@]5(O)[C@@H]4CC[C@]3(O)C2)[C@H](O)[C@H](O)[C@H]1O [ouabain]
Na+/K+-ATPase; [9]
  specific activity of Na+/K+-ATPase: 5.2 µmol/mg/min
Na+/K+-ATPase; [10]
  specific activity of Na+/K+-ATPase: 0 µmol/mg/min
Na+/K+-ATPase; [11]
  specific activity of Na+/K+-ATPase: 0 µmol/mg/min
Na+/K+-ATPase; inhibitor 1 mM
  effect on Na+/K+-ATPase activity: completely inhibited

## [O]=[V]([O-])([O-])[O-] [vanadate]
Na+/K+-ATPase; [9]
  specific activity of Na+/K+-ATPase: 2.0 µmol/mg/min
Na+/K+-ATPase; [10]
  specific activity of Na+/K+-ATPase: 0 µmol/mg/min
Na+/K+-ATPase; [11]
  specific activity of Na+/K+-ATPase: 0 µmol/mg/min
Na+/K+-ATPase; inhibitor 1 mM
  effect on Na+/K+-ATPase activity: completely inhibited

## apicularen
F-ATPase [1]; [6]
  ATPase activity reduced to (remaining activity): approximately 80%
F-ATPase [1]; beef heart submitochondrial particles, inhibitor 10 μM
  effect of increased inhibitor concentration on F-ATPase activity: no substantial effect
F-ATPase [2]; [7]
  ATPase activity reduced to (remaining activity): approximately 80%
F-ATPase [2]; mouse heart crude membranes, inhibitor 10 μM
  effect of increased inhibitor concentration on F-ATPase activity: no substantial effect
